Measurements: ChEMBL document CHEMBL1151397, “The Alkaloids of Stephania glabra” (1982)

Tested on: Ileum
Assay: Spasmolytic activity in guinea pig ileum assessed as blockade of muscle contractions at 25 ug
Assay type: functional, Cavia porcellus

COc1cc2c3c(c1OC)C1(C=CC(=O)C=C1)C[C@H]3N(C)CC2.Cl [PRONUCIFERINE HYDROCHLORIDE]
Activity: 75%
